Assays:
[1] = Herder activity: slick thickness of oil added to water pre-dosed with herder
Method: The herder formulation was pre-dosed into 1 L of water in a flat glass pan under which was a 1×1 cm grid. A known volume of oil was applied to the pre-dosed water. A digital photo of the oil slick was recorded. The image was processed using ImageJ in order to calculate the area of the slick. Since volume and area are known, it is possible to calculate the thickness of the slick as a function of herder dosing. Compounds that maximize the thickness of the slick are considered better oil-herders.
Stearoyl alanine was dissolved in isopropyl alcohol. An aliquot of this solution was added to 1 L of water in a pan. The final dosage of stearoyl alanine was 0.77 mg in 1 L of water. Dilbit (2.27 g) was added. An overhead digital photo was taken of the oil after 10 minutes. The photo was analyzed to determine the area of the oil which could be used to calculate the thickness of the oil layer. The oil slick was determined to be 2.9 mm thick.
Silsurf, (trademark) a commercial herder added to 1 L of water in a glass pan for a final dosing of 1 mg. Dilbit (1.61 g) was added to the water. An overhead digital photo was taken of the oil after 10 minutes. The photo was analyzed to determine the area of the oil which could be used to calculate the thickness of the oil layer. The oil slick was determined to be 2.0 mm thick.

[2] = Herding (slick retraction) of oil already spread on water; conditions: aqueous solution of herder applied to spread oil; images at 1, 5, 10 and 20 minutes
Text: When an oil (e.g., dilbit) is applied to water in a pan, the oil spreads to cover the surface of the water. Application of FA-AA as a salt (e.g., Li, Na or K salts) dissolved in water results in contraction of the oil layer. The pooled oil has reduced surface area and greater slick thickness. This is illustrated in FIG. 9A-E where a solution of the salt of a FA-AA is applied to an aliquot of oil which has been allowed to spread in a pan (FIG. 9A). Application of the aqueous herder solution results in contraction of the slick over time. Images taken at 1, 5, 10 and 20 minutes are shown in FIGS. 9B, 9C, 9D and 9E respectively.
Alternatively, an oil was applied to water in a pan and allowed to spread. A herder (e.g. L-phenylalanine, N-(1-oxotetradecyl)-, sodium salt) was applied to the water to retract the slick (i.e. decrease surface area while increasing the thickness/depth of the oil layer). Overhead photography was used to capture the herding process. The images were processed to determine the area of the slick and allow for calculation of the slick thickness (FIG. 9).

[3] = Method: The herder L-phenylalanine, N-(1-oxotetradecyl)-, sodium salt and the gellant oleic-β-alaninamide were assessed for biodegradability in using OECD 301F guideline, manometric respirometer test.
[4] = Reduction of oil adhesion on glass beads conditioned with aqueous herder solution; conditions: beads conditioned 1 hour, in oil 1 hour
Method: Glass bead were used as a model substrate. The beads were weighed and transferred into a pre-weighed 60 mL plastic syringe. The beads were immersed in an aqueous solution of herder, C14-L-Phe-COONa, for 1 hour. An oil layer of conventional crude oil was added to the surface of the herder solution above the glass beads. The oil was lowered hydrostatically to immerse the beads in oil for 1 hour after which the oil was raised hydrostatically above the level of the beads. The water above the oil and beads were both removed. The mass of the oil retained on the glass beads was calculated as the difference between the mass of the oil-coated beads and the initial mass of the beads.

[5] = Gelling ability, solution phase (co-solvent) delivery to dilbit-water mixture
Method: PSOGs were screened against dilbit, diesel and sunflower. The dilbit used in the Examples herein was prepared by dissolving bitumen in naphtha in a 65:35 ratio of bitumen to naphtha. A typical screening method utilized a 1:4 ratio of hydrophobic liquid to water (i.e., 1 mL oil product to 4 mL water) in a 20 mL vial. The gellant (22.5 mg) was dissolved in a carrier solvent, which was typically methanol, ethanol or isopropanol. Heat was applied to dissolve the solid if necessary. The gellant solution was transferred to the oil-water mixture and the vial was capped. Agitation was applied and the mixture allowed to settle. Gel formation typically presented as the formation of an oil pellet or a thickening of the oil phase.
Four portions of the prior art compound dodecanoyl-L-alanine of differing masses were weighed out and each dissolved in 1 mL of isopropyl alcohol. These four solutions were added to four separate 20 mL vials of 1:4 mL dilbit and water. […] Gel formation was evaluated qualitatively.
This procedure was repeated with dodecanoyl-β-alaninamide. Four portions of dodecanoyl-β-alaninamide of differing masses were weighed out and each dissolved in 1 mL of isopropyl alcohol. These four solutions were added to four separate 20 mL vials containing 1 mL dilbit and 4 mL water. […] Gel formation was evaluated qualitatively.

[6] = Oil thickening, aqueous suspension delivery to dilbit-water mixture
Method: Gellants which presented as fine powdery solids were suspended in water (4-5 mL). The suspension was sonicated to reduce the particle size if necessary. The suspension was added to a mixture of 1 mL oil to 4 mL water in a 20 mL vial. The vial was capped and the mixture agitated. Thickening of the oil, likely due to the formation of an emulsion, could be observed within 15 minutes.
Four portions of prior art compound dodecanoyl-L-alanine of differing masses were weighed out and each suspended in 1 mL of water. These four suspensions were added to four separate 20 mL vials of 1:4 mL dilbit and water. […] Oil thickening was evaluated qualitatively.
This experiment was repeated with dodecanoyl-β-alaninamide. Four portions of dodecanoyl-β-alaninamide of differing masses were weighed out and each suspended in 7 mL of water. These four suspensions were added to four separate 20 mL vials of 1:4 mL dilbit and water. […] Oil thickening was evaluated qualitatively.

[7] = Gelling activity using mixed organic solvent-water active suspension; conditions: 25 mg in 5 mL 2:3 1,4-butanediol and water, heated and cooled; added to 1:4 oil and seawater, gentle agitation
Method: The gellant oleic-p-alaninamide (25 mg) was suspended in 5 mL of a mixed solvent system composed of 2:3 1,4-butanediol and water. The mixture was heated to dissolve the solids. Upon cooling, the gellant precipitates as a cotton-like mass.

[8] = Gelling activity without organic solvent (active suspension in water); conditions: 25 mg in 5 mL water, heated and cooled; no organic solvent
Method: The gellant oleic-β-alaninamide (25 mg) was suspended 5 mL of water which was dyed pink for visualization purposes. The mixture was heated to dissolve the gellant. Upon cooling, the gellant precipitated as a cotton-like mass which retains the water. […] Upon the addition of diesel, which has been dyed blue, the hydrophobic phase entered the gellant mass upon contact and displaced the dyed water (FIGS. 8B and 8C) to produce the gelled diesel.

[9] = Bhattacharya et al., Chemical Communications p. 185, 2001; cited from earlier work

Compound: CCCCCCCCCCCCCC(=O)N[C@@H](C)C(=O)[O-].[Na+] [sodium tetradecanoylalaninate]
- Behaviour of oil added to a pan of water pre-dosed with herder (FIG. 2) ([1]; FA-AA salt pre-dosed into water): contraction of the oil slick

Compound: CCCCCCCCCCCCCC(=O)N[C@@H](Cc1ccccc1)C(=O)[O-].[Na+] [L-phenylalanine, N-(1-oxotetradecyl)-, sodium salt]
- Herding of dilbit (FIG. 9) [2]: slick retraction
- Biodegradability classification [3]: readily biodegradable
- Average mass of conventional crude retained ([4]; herder concentration 0.086 g/L): 1.9 g
- Average mass of conventional crude retained ([4]; herder concentration 0.57 g/L): 1.3 g
- Average mass of conventional crude retained ([4]; herder concentration 2.9 g/L): 1.6 g
- Average mass of conventional crude retained ([4]; herder concentration 10 g/L): 1.8 g

Compound: CCCCCCCCCCCCCCCCCC(=O)N[C@@H](C)C(=O)O [Stearoyl alanine]
- Oil slick thickness ([1]; 0.77 mg in 1 L of water (from isopropyl alcohol solution), dilbit 2.27 g, photo after 10 minutes): 2.9 mm

Compound: oleic alaninamide
- State of dilbit after PSOG delivered as solution in a water-miscible solvent (FIG. 3) ([5]; dilbit and water): gel pellet
- State of dilbit after PSOG suspended in water (FIG. 3) ([6]; dilbit and water): thickened state

Compound: CCCCCCCC/C=C\CCCCCCCC(=O)NCCC(N)=O [oleic-β-alaninamide]
- Time to gelling of the oil phase [7]: less than 1 minute
- Gelling of dyed diesel (FIG. 8) [8]: gelled diesel
- Biodegradability classification [3]: inherently biodegradable

Compound: CCCCCCCCCCCC(=O)N[C@@H](C)C(=O)O [dodecanoyl-L-alanine, reference compound]
- Dosing ratio at which a gel formed (qualitative evaluation) ([5]; gellant in 1 mL isopropyl alcohol, 1 mL dilbit and 4 mL water, tested at 2.5, 1.25, 0.83 and 0.63% w/v relative to dilbit): 2.5 % w/v
- Dosing level at which the oil thickened (qualitative evaluation) ([6]; solid suspended in water, 1:4 mL dilbit and water, tested at 2.5, 1.25, 0.83 and 0.63% w/v relative to dilbit): did not thicken the oil at any of the dosing levels tested
- Gelling ability [9]: gel various hydrophobic organic liquids including petrol
